{
  "source": "paper PMC12675537",
  "about": "“Molecular basis for multidrug efflux by an anaerobic-associated RND transporter” (Nature Communications, 2025)",
  "key": {"MdtF [1]": {"target": "T1, MdtF (Escherichia coli, UniProt P37637)", "T1 construct": "MdtF-6xHis (C-terminal His tag) in SMALP native-lipid nanodiscs; homotrimer", "test": "fluorescence polarisation; thermal stabilisation (CD, DSC, nanoDSF)", "type": "binding"}, "MdtF [2]": {"target": "T2, MdtF (Escherichia coli, UniProt P37637, V610F)", "T2 construct": "MdtF-6xHis (C-terminal His tag) in SMALP native-lipid nanodiscs; homotrimer", "T2 sequence (P37637 1-1037 V610F)": "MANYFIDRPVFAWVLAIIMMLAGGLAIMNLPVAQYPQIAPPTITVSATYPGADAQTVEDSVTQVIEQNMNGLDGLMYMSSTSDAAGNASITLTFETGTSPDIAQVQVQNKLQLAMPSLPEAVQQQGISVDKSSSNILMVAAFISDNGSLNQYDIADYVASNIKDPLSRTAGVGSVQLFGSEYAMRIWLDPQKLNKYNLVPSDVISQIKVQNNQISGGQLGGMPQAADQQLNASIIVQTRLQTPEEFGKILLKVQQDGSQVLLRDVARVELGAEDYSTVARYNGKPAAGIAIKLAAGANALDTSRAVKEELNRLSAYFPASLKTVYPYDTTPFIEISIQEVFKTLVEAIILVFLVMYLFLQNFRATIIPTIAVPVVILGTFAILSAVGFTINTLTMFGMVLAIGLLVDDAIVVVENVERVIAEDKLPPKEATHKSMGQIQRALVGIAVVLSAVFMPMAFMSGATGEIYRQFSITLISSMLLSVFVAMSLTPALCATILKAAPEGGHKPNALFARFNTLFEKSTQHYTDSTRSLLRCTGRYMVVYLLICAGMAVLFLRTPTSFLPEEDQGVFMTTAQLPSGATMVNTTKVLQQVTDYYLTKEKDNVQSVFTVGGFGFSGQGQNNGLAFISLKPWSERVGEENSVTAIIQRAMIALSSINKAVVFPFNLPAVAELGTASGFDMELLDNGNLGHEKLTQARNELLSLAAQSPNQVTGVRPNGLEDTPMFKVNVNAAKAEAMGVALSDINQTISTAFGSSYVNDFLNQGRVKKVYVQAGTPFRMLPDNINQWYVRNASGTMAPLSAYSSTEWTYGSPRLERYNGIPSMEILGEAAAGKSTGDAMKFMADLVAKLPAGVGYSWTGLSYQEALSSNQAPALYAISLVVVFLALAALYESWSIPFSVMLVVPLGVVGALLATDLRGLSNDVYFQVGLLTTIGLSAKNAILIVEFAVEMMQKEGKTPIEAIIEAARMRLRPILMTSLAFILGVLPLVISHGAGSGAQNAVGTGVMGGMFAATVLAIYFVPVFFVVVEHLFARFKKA", "test": "fluorescence polarisation Kd; thermal stabilisation (CD, DSC, nanoDSF)", "type": "binding"}, "cryo-EM structure": {"target": "the molecule itself", "test": "cryo-EM structure"}},
  "data": [
    {"molecule": "CC/N=c1\\cc2oc3cc(NCC)c(C)cc3c(-c3ccccc3C(=O)OCC)c-2cc1C", "note": "[R6G, Rhodamine 6G]", "values": [
      {"measurement": "Kd", "setting": "MdtF [1]", "result": "390 ± 90", "unit": "nM"},
      {"measurement": "Kd", "setting": "MdtF [2]", "result": "720 ± 90", "unit": "nM"}
    ]},
    {"molecule": "Escherichia coli multidrug transporter MdtF, wild type (MdtF-6xHis) in SMA lipid particles (natural protein, also called MdtF^WT; apo-MdtF^WT; source: E. coli C43(DE3) ΔacrAB, extracted from membranes with SMA 2000 into SMALPs, purified (Ni-NTA, SEC)) MANYFIDRPVFAWVLAIIMMLAGGLAIMNLPVAQYPQIAPPTITVSATYPGADAQTVEDSVTQVIEQNMNGLDGLMYMSSTSDAAGNASITLTFETGTSPDIAQVQVQNKLQLAMPSLPEAVQQQGISVDKSSSNILMVAAFISDNGSLNQYDIADYVASNIKDPLSRTAGVGSVQLFGSEYAMRIWLDPQKLNKYNLVPSDVISQIKVQNNQISGGQLGGMPQAADQQLNASIIVQTRLQTPEEFGKILLKVQQDGSQVLLRDVARVELGAEDYSTVARYNGKPAAGIAIKLAAGANALDTSRAVKEELNRLSAYFPASLKTVYPYDTTPFIEISIQEVFKTLVEAIILVFLVMYLFLQNFRATIIPTIAVPVVILGTFAILSAVGFTINTLTMFGMVLAIGLLVDDAIVVVENVERVIAEDKLPPKEATHKSMGQIQRALVGIAVVLSAVFMPMAFMSGATGEIYRQFSITLISSMLLSVFVAMSLTPALCATILKAAPEGGHKPNALFARFNTLFEKSTQHYTDSTRSLLRCTGRYMVVYLLICAGMAVLFLRTPTSFLPEEDQGVFMTTAQLPSGATMVNTTKVLQQVTDYYLTKEKDNVQSVFTVGGFGFSGQGQNNGLAFISLKPWSERVGEENSVTAIIQRAMIALSSINKAVVFPFNLPAVAELGTASGFDMELLDNGNLGHEKLTQARNELLSLAAQSPNQVTGVRPNGLEDTPMFKVNVNAAKAEAMGVALSDINQTISTAFGSSYVNDFLNQGRVKKVYVQAGTPFRMLPDNINQWYVRNASGTMAPLSAYSSTEWTYGSPRLERYNGIPSMEILGEAAAGKSTGDAMKFMADLVAKLPAGVGYSWTGLSYQEALSSNQAPALYAISLVVVFLALAALYESWSIPFSVMLVVPLGVVGALLATDLRGLSNDVYFQVGLLTTIGLSAKNAILIVEFAVEMMQKEGKTPIEAIIEAARMRLRPILMTSLAFILGVLPLVISHGAGSGAQNAVGTGVMGGMFAATVLAIYFVPVFFVVVEHLFARFKKA", "values": [
      {"measurement": "stoichiometry N", "setting": "cryo-EM structure", "result": 3}
    ]},
    {"molecule": "Escherichia coli multidrug transporter MdtF with the single-point mutation V610F (MdtF-6xHis) in SMA lipid particles (natural protein, also called MdtF^V610F; apo-MdtF^V610F; source: E. coli C43(DE3) ΔacrAB, extracted from membranes with SMA 2000 into SMALPs, purified (Ni-NTA, SEC)) MANYFIDRPVFAWVLAIIMMLAGGLAIMNLPVAQYPQIAPPTITVSATYPGADAQTVEDSVTQVIEQNMNGLDGLMYMSSTSDAAGNASITLTFETGTSPDIAQVQVQNKLQLAMPSLPEAVQQQGISVDKSSSNILMVAAFISDNGSLNQYDIADYVASNIKDPLSRTAGVGSVQLFGSEYAMRIWLDPQKLNKYNLVPSDVISQIKVQNNQISGGQLGGMPQAADQQLNASIIVQTRLQTPEEFGKILLKVQQDGSQVLLRDVARVELGAEDYSTVARYNGKPAAGIAIKLAAGANALDTSRAVKEELNRLSAYFPASLKTVYPYDTTPFIEISIQEVFKTLVEAIILVFLVMYLFLQNFRATIIPTIAVPVVILGTFAILSAVGFTINTLTMFGMVLAIGLLVDDAIVVVENVERVIAEDKLPPKEATHKSMGQIQRALVGIAVVLSAVFMPMAFMSGATGEIYRQFSITLISSMLLSVFVAMSLTPALCATILKAAPEGGHKPNALFARFNTLFEKSTQHYTDSTRSLLRCTGRYMVVYLLICAGMAVLFLRTPTSFLPEEDQGVFMTTAQLPSGATMVNTTKVLQQVTDYYLTKEKDNVQSVFTFGGFGFSGQGQNNGLAFISLKPWSERVGEENSVTAIIQRAMIALSSINKAVVFPFNLPAVAELGTASGFDMELLDNGNLGHEKLTQARNELLSLAAQSPNQVTGVRPNGLEDTPMFKVNVNAAKAEAMGVALSDINQTISTAFGSSYVNDFLNQGRVKKVYVQAGTPFRMLPDNINQWYVRNASGTMAPLSAYSSTEWTYGSPRLERYNGIPSMEILGEAAAGKSTGDAMKFMADLVAKLPAGVGYSWTGLSYQEALSSNQAPALYAISLVVVFLALAALYESWSIPFSVMLVVPLGVVGALLATDLRGLSNDVYFQVGLLTTIGLSAKNAILIVEFAVEMMQKEGKTPIEAIIEAARMRLRPILMTSLAFILGVLPLVISHGAGSGAQNAVGTGVMGGMFAATVLAIYFVPVFFVVVEHLFARFKKA", "values": [
      {"measurement": "binding result", "setting": "cryo-EM structure", "result": "binds"}
    ]}
  ]
}
